Activity calls are given as the source filed them. The rule behind the calls is not given here.
What was measured:
cells [1] = format: functional, cell-based; conditions: Homo sapiens, 72 h
Description: Antiproliferative activity against human UCH12 cells measured after 72 hrs by alamar blue assay

[2] = biological target: T1, Cyclin-G-associated kinase (Homo sapiens, UniProt O14976); assay: Inhibition of tracer 5 binding to human N-terminal nano luciferase-fused GAK expressed in HEK293 cells measured after 2 hrs by nanoBRET assay; format: cell-based
T1 sequence (O14976 whole entry): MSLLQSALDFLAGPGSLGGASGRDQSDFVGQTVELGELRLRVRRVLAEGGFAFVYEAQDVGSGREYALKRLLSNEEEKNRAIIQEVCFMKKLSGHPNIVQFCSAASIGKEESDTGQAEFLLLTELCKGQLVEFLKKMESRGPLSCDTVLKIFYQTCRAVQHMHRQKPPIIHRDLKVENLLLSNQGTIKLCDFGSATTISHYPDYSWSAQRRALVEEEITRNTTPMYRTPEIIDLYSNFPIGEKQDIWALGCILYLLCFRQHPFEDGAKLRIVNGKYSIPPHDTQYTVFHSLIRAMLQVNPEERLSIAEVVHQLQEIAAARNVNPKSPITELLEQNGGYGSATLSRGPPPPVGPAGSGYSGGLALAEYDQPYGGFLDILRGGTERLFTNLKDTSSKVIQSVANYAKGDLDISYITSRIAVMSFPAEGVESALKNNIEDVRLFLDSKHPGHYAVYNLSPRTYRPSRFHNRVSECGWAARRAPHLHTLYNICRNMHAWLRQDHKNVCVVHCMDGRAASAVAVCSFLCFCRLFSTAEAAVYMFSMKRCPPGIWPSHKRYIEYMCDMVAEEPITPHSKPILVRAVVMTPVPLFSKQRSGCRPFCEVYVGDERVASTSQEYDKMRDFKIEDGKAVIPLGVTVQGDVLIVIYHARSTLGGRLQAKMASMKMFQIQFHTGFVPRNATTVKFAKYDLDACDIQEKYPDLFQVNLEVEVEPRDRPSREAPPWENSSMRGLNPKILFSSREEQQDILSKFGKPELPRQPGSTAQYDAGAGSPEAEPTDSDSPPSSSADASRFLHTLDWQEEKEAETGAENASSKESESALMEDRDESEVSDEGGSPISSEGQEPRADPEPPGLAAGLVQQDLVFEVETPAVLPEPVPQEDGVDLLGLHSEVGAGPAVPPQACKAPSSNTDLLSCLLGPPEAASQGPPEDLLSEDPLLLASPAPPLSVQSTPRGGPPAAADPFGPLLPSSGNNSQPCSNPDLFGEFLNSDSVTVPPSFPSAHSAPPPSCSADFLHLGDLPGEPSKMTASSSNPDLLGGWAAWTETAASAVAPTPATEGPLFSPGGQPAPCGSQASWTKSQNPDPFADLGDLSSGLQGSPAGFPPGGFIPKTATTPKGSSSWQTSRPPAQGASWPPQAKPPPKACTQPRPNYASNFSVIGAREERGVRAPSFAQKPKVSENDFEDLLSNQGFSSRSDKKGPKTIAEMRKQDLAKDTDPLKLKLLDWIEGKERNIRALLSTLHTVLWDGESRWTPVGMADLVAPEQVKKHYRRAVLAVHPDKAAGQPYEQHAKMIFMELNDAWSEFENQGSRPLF

cells [3] = format: functional, cell-based; conditions: Homo sapiens, UCH1, 72 h
Description: Antiproliferative activity against human UCH1 cells measured after 72 hrs by alamar blue assay

[4] = biological target: T2, Epidermal growth factor receptor (Homo sapiens, UniProt P00533);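 as to IC50: human A431 cells pretreated 90 min, then EGF stimulated, sandwich ELISA measured decrease in EGF-induced receptor autophosphorylation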;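 as to Kd: KINOMEscan competition binding with recombinant partial wild-type human EGFR (residues R669–V1011) produced in bacteria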
Description: Binding affinity to wild-type human partial length EGFR (R669 to V1011 residues) expressed in bacterial expression system by Kinomescan method

cells [5] = format: functional, cell-based; conditions: Homo sapiens, 72 h; remark: listed apart in the source
Description: Antiproliferative activity against human UCH7 cells measured after 72 hrs by alamar blue assay

cells [6] = format: functional, cell-based; conditions: Homo sapiens, 72 h; remark: listed apart in the source
Description: Antiproliferative activity against human UCH14 cells measured after 72 hrs by alamar blue assay

cells [7] = format: functional, cell-based; conditions: Homo sapiens, 72 h; remark: listed apart in the source
Description: Antiproliferative activity against human CH22 cells measured after 72 hrs by alamar blue assay

cells [8] = format: ADME, cell-based; conditions: Homo sapiens, WS1, 72 h
Description: Cytotoxicity against human WS1 cells measured after 72 hrs by alamar blue assay

cells [9] = format: functional, cell-based; conditions: Homo sapiens, 72 h; remark: listed apart in the source
Description: Antiproliferative activity against human UMCHOR1 cells measured after 72 hrs by alamar blue assay

[10] = biological target: T2, Epidermal growth factor receptor; format: cell-based
Description: Inhibition of EGFR in human A431 cells assessed as reduction in EGF-stimulated EGFR autophosphorylation preincuabted for 90 mins followed by EGF-stimulation by sandwich-ELISA

cells [11] = format: functional, cell-based; conditions: Homo sapiens, UCH2, 72 h
Description: Antiproliferative activity against human UCH2 cells measured after 72 hrs by alamar blue assay

[12] = biological target: T1, Cyclin-G-associated kinase; assay: Binding affinity to wild-type human partial length GAK (G13 to Y338 residues) expressed in bacterial expression system by Kinomescan method
[13] = biological target: T3, Cyclin-G-associated kinase (Homo sapiens) (UniProt O14976); assay: Inhibition of tracer 5 binding to human N-terminal nano luciferase-fused GAK expressed in HEK293 cells at 5 uM measured after 2 hrs by nanoBRET assay relative to control; format: cell-based
T3 sequence (whole entry): T1 sequence (O14976 whole entry)

[14] = biological target: T2, Epidermal growth factor receptor; assay: Binding affinity to wild-type human partial length EGFR (R669 to V1011 residues) expressed in bacterial expression system at 1 uM by Kinomescan method relative to control
[15] = biological target: Pyruvate kinase PKM (Homo sapiens) (UniProt P14618); assay: Binding affinity to PKM in human SUM159 cell lysates by multiplexed inhibitor bead profiling-based LC-MS/MS analysis; format: subcellular; conditions: Lysate
[16] = biological target: T3, Cyclin-G-associated kinase (Homo sapiens); assay: Binding affinity to GAK in human SUM159 cell lysates by multiplexed inhibitor bead profiling-based LC-MS/MS analysis; format: subcellular; conditions: Lysate
[17] = biological target: Mitotic checkpoint serine/threonine-protein kinase BUB1 (Homo sapiens) (UniProt O43683); assay: Binding affinity to BUB1 in human SUM159 cell lysates by multiplexed inhibitor bead profiling-based LC-MS/MS analysis; format: subcellular; conditions: Lysate
[18] = biological target: T2, Epidermal growth factor receptor; assay: Inhibition of EGFR in human UCH2 cells assessed as reduction in EGF-induced EGFR phosphorylation at Y1068 residue at 1 uM preincubated for 4 hrs followed by EGF--stimulation and measured after 15 mins by Western blot analysis relative to control; format: cell-based
[19] = Effect on total EGFR expression in human UCH1 cells at 1 to 10 uM measured after 4 hrs by Western blot analysis; format: ADME, cell-based
[20] = biological target: T2, Epidermal growth factor receptor; assay: Inhibition of EGFR in human UCH2 cells assessed as reduction in EGF-induced EGFR phosphorylation at Y1068 residue at 10 uM preincubated for 4 hrs followed by EGF--stimulation and measured after 15 mins by Western blot analysis relative to control; format: cell-based
[21] = Effect on total EGFR expression in human UCH2 cells at 1 to 10 uM measured after 4 hrs by Western blot analysis; format: ADME, cell-based
[22] = biological target: T2, Epidermal growth factor receptor; assay: Inhibition of EGFR in human UCH1 cells assessed as reduction in EGF-induced EGFR phosphorylation at Y1068 residue at 1 uM preincubated for 4 hrs followed by EGF--stimulation and measured after 15 mins by Western blot analysis relative to control; format: cell-based
[23] = biological target: T2, Epidermal growth factor receptor; assay: Inhibition of EGFR in human UCH1 cells assessed as reduction in EGF-induced EGFR phosphorylation at Y1068 residue at 10 uM preincubated for 4 hrs followed by EGF--stimulation and measured after 15 mins by Western blot analysis relative to control; format: cell-based

T2 sequence (P00533 whole entry, the tested form may be a part): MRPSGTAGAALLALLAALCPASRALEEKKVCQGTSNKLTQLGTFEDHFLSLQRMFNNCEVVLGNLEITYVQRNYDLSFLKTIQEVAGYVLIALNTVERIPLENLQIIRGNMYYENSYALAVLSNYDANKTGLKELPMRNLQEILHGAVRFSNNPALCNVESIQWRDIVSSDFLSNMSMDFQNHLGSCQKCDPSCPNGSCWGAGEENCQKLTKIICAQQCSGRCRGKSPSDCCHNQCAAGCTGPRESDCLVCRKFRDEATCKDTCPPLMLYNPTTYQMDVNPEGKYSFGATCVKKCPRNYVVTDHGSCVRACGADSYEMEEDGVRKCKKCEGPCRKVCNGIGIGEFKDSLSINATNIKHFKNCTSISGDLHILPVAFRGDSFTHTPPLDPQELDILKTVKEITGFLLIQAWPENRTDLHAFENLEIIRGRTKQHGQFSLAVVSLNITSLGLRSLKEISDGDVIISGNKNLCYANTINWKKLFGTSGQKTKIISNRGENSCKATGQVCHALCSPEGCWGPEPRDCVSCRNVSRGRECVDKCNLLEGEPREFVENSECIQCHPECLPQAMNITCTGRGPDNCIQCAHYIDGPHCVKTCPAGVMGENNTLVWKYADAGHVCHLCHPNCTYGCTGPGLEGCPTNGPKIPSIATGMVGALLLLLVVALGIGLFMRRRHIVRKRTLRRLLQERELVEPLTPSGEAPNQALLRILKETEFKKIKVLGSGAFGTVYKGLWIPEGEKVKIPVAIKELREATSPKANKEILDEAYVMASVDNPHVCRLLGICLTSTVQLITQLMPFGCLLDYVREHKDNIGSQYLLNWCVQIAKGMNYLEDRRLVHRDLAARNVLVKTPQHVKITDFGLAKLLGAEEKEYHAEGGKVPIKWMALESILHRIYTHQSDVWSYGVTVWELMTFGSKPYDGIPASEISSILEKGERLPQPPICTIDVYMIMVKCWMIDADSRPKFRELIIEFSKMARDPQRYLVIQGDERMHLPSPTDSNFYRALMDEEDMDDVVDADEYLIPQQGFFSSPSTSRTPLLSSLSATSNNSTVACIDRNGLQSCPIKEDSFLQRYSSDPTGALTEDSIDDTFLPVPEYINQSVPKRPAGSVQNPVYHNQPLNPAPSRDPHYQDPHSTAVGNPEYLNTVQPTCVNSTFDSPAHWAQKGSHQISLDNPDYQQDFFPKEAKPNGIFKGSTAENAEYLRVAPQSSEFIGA
Chain of Pyruvate kinase PKM (Homo sapiens) (P14618 2-531 limits assumed): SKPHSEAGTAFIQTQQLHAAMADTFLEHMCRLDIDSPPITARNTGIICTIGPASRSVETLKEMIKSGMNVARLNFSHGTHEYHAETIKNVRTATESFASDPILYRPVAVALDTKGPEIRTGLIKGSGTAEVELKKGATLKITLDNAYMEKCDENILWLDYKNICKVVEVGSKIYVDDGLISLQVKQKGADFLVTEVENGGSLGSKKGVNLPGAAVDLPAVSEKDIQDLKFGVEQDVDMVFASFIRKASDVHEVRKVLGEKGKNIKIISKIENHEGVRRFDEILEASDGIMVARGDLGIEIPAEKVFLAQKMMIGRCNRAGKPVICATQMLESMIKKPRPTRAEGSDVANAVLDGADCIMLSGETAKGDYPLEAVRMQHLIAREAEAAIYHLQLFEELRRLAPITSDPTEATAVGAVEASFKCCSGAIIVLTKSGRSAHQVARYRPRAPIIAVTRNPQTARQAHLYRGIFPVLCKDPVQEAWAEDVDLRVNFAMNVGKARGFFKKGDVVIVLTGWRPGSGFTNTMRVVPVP
Chain of Mitotic checkpoint serine/threonine-protein kinase BUB1 (Homo sapiens) (O43683 whole entry, looked up): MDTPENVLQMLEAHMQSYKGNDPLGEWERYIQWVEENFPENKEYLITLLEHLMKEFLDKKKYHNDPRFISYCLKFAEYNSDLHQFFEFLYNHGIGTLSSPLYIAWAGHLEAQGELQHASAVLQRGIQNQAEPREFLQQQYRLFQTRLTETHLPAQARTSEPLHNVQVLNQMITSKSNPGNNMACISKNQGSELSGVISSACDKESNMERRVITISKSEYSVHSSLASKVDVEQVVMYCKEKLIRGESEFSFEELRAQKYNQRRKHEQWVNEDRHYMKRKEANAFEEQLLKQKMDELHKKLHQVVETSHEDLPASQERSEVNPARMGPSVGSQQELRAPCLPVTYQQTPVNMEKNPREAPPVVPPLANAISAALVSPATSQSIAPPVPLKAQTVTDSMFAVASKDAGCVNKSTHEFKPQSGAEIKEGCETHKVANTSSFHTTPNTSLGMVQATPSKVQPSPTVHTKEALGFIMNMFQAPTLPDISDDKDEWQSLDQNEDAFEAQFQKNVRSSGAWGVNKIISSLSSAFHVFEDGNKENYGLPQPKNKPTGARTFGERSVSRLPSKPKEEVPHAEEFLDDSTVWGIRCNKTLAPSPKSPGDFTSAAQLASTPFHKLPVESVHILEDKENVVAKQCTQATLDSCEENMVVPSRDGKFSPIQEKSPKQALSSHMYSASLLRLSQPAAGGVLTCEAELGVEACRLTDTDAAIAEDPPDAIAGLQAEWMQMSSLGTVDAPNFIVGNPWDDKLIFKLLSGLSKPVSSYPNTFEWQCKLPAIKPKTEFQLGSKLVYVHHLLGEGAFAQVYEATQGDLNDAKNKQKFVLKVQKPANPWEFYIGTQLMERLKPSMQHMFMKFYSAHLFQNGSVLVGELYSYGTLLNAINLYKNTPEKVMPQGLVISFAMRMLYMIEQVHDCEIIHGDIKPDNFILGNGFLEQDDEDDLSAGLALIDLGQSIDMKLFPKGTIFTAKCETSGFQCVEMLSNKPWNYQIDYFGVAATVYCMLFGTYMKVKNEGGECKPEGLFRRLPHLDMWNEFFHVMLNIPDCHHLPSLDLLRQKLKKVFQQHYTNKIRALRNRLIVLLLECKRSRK

COc1cc2nccc(Nc3cc(OC)c(OC)c(OC)c3)c2cc1OC
IC50 (cells [1]): 33 µM
IC50 [2]: 23 nM
IC50 (cells [3]): 11 µM
Kd [4]: 410 nM
IC50 (cells [5]): 30 µM
IC50 (cells [6]): 19 µM
IC50 (cells [7]): 12 µM
IC50 (cells [8]): 14 µM
IC50 (cells [9]): 24 µM
IC50 [10]: 27000 nM
IC50 (cells [11]): 25 µM

C#Cc1cccc(Nc2c(C#N)cnc3cc(OC)c(OC)cc23)c1
IC50 [2]: 31 nM
IC50 (cells [3]): 17 µM
Kd [4]: 1.8 nM
IC50 (cells [8]): > 50 µM
Kd [12]: 2.6 nM
IC50 [10]: 61 nM
IC50 (cells [11]): > 50 µM

COc1cc(Nc2ncnc3ccc(C(F)(F)F)cc23)cc(OC)c1OC
IC50 (cells [3]): 50 µM
Kd [4]: 6100 nM
IC50 (cells [8]): 45 µM
Kd [12]: 190 nM
IC50 [10]: > 50000 nM
IC50 (cells [11]): > 50 µM
inhibition [13]: 60%

C#Cc1cccc(Nc2ccnc3cc(OCCOC)c(OCCOC)cc23)c1
IC50 (cells [3]): 7.6 µM
Kd [4]: 390 nM
IC50 (cells [8]): 12 µM
Kd [12]: 1200 nM
IC50 [10]: 340 nM
IC50 (cells [11]): 16 µM

COc1cc(Nc2ccnc3ccc(C(F)(F)F)cc23)cc(OC)c1OC
Activity [14]: < 50%
IC50 (cells [3]): > 50 µM
IC50 (cells [8]): 21 µM
IC50 [10]: > 50000 nM
IC50 (cells [11]): 33 µM

COc1cc2nccc(Nc3cccc(Br)c3)c2cc1OC
IC50 (cells [1]): > 50 µM
Activity [15]: Active
IC50 [2]: 510 nM
IC50 (cells [3]): 3.6 µM
Activity [16]: Active
IC50 (cells [5]): > 50 µM
IC50 (cells [6]): > 50 µM
Activity [17]: Active
IC50 (cells [7]): 6.5 µM
IC50 (cells [8]): 2.9 µM
Kd [12]: 240 nM
IC50 (cells [11]): 7.9 µM

COc1cc2ncnc(Nc3cccc(Br)c3)c2cc1OC
IC50 [2]: 260 nM
IC50 (cells [3]): 0.66 µM
IC50 (cells [8]): 9.7 µM
IC50 (cells [11]): 26 µM

COc1cc2ncc(C#N)c(Nc3cccc(Br)c3)c2cc1OC
IC50 [2]: 130 nM
IC50 (cells [3]): 8.8 µM
Kd [4]: 2.4 nM
IC50 (cells [8]): 14 µM
Kd [12]: 12 nM
IC50 [10]: 90 nM
IC50 (cells [11]): > 50 µM

COc1cc2ncnc(Nc3cc(OC)c(OC)c(OC)c3)c2cc1OC
IC50 [2]: 350 nM
IC50 (cells [3]): 7.3 µM
IC50 (cells [8]): 28 µM
Kd [12]: 10 nM
IC50 (cells [11]): > 10 µM

CC(C)(C)S(=O)(=O)c1cc2c(Nc3ccc4scnc4c3)ncnc2cc1OCCO
IC50 (cells [3]): > 50 µM
IC50 (cells [8]): > 50 µM
IC50 [10]: > 50000 nM
IC50 (cells [11]): 30 µM
inhibition [13]: 0%

C#Cc1cccc(Nc2ncnc3cc(OC)c(OC)cc23)c1
IC50 (cells [1]): > 50 µM
inhibition [18]: 100%
Activity [19]: Non-Toxic
IC50 [2]: 72 nM
IC50 (cells [3]): 0.92 µM
inhibition [20]: 100%
Activity [16]: Active
Activity [21]: Non-Toxic
Kd [4]: 0.55 nM
inhibition [22]: 63.4%
IC50 (cells [5]): 23 µM
IC50 (cells [6]): > 50 µM
inhibition [23]: 100%
IC50 (cells [7]): > 50 µM
IC50 (cells [8]): 4.4 µM
IC50 (cells [9]): 18 µM
Kd [12]: 6.8 nM
IC50 (cells [11]): > 50 µM

COc1cc(Nc2ccnc3ccc(Br)cc23)cc(OC)c1OC
Activity [14]: < 50%
IC50 (cells [3]): > 50 µM
IC50 (cells [8]): 11 µM
IC50 [10]: > 50000 nM
IC50 (cells [11]): > 50 µM

COc1cc(Nc2cc(C)nc3ccc(C(F)(F)F)cc23)cc(OC)c1OC
IC50 (cells [3]): 37 µM
IC50 (cells [8]): 49 µM
IC50 [10]: > 50000 nM
IC50 (cells [11]): > 50 µM
inhibition [13]: 0%

COc1cc2ncc(C#N)c(Nc3cc(OC)c(OC)c(OC)c3)c2cc1OC
IC50 [2]: 2.4 nM
IC50 (cells [3]): 11 µM
Kd [4]: 7.4 nM
IC50 (cells [8]): > 50 µM
Kd [12]: 0.42 nM
IC50 [10]: 7100 nM
IC50 (cells [11]): > 10 µM

COCCOc1cc2ncnc(Nc3cc(OC)c(OC)c(OC)c3)c2cc1OCCOC
IC50 [2]: 2600 nM
IC50 (cells [3]): 25 µM
Kd [4]: 53 nM
IC50 (cells [8]): > 50 µM
Kd [12]: 150 nM
IC50 [10]: 2400 nM
IC50 (cells [11]): > 50 µM

COc1cc2ncnc(Nc3ccc(OCc4cccc(F)c4)c(Cl)c3)c2cc1OC
IC50 (cells [3]): 13 µM
Kd [4]: 1.3 nM
IC50 (cells [8]): > 10 µM
Kd [12]: 5000 nM
IC50 [10]: < 15 nM
IC50 (cells [11]): > 50 µM
inhibition [13]: 12%

COc1cc(N(C)c2ccnc3ccc(C(F)(F)F)cc23)cc(OC)c1OC
IC50 (cells [3]): > 50 µM
IC50 (cells [8]): > 50 µM
IC50 [10]: 2200 nM
IC50 (cells [11]): > 50 µM
inhibition [13]: 7%

From ChEMBL document CHEMBL4393671, “Design of a Cyclin G Associated Kinase (GAK)/Epidermal Growth Factor Receptor (EGFR) Inhibitor Set to Interrogate the Relationship of EGFR and GAK in Chordoma” (J Med Chem, 2019)
